Data from paper PMC11445189 (Frontiers in Toxicology, 2024).
Marks after values point to notes of the source that are not given here.

Legend:
[1] = test system: cyp1b1; test: qRT-PCR transcriptional alteration in zebrafish embryos; assay type: in vivo; settings: single chemical 10 ng/mL, 6 days, normalized to β-actin
Method: (§1) To verify the developmental effects in zebrafish embryos caused by exposure to realistic mixtures, mixture toxicity tests with zebrafish embryos were performed at a range of environmentally relevant concentrations, and three exposure concentrations at a 1:1 mixing ratio (i.e., 1, 10, and 100 ng/mL of each chemical). […] Realistic mixture toxicity tests using zebrafish embryos were performed under the same conditions as the single-toxicity tests.
(§2) To examine the transcriptional alteration of target genes linked to zebrafish embryonic development, The total RNA from 20 zebrafish embryos was extracted using a RNeasy Mini kit (Qiagen, Hilden, Germany), following the manufacturer’s instructions. The total RNA concentration was measured spectrophoto-metrically at 260/280 nm using a Gen5™ spectrophotometer (BioTek®, Winooski, VT, United States). […]
(§3) The primer sequences for target genes were designed to use for quantitative real-time polymerase chain reaction (qRT–PCR): namely aryl hydrocarbon receptor 2 (ahr2), cytochrome P450 monooxygenases (i.e., cyp1a1 and cyp1b1), nuclear factor erythroid 2-related factors (i.e., nrf1a and nrf2a), tumor suppressor gene (p53), thyroid stimulating hormone beta subunit (tsh-β), and thyroid hormone receptors (i.e., thraa and thrb) (Supplementary Table S1) ([Fan et al., 2018]; [Liu et al., 2011]; [Ren et al., 2020]; [Williams et al., 2013]). […]

[2] = test system: cyp1a1; test: as above; assay type: in vivo; settings: single chemical 10 ng/mL, 6 days, normalized to β-actin
Method: as §1, §2, §3

[3] = ref Mason et al., 2013, cited from earlier work
[4] = test system: sheepshead minnow; settings: acute toxicity, ref Gibbons et al., 2015; cited from earlier work
[5] = test system: zebrafish embryos; test: Realistic mixture toxicity test, embryonic toxicity; assay type: in vivo; settings: single chemical 10 ng/mL, 6 days after exposure
Method: (§4) Zebrafish embryos were obtained from adult zebrafish continuously sub-cultured in Korea Institute Toxicology Laboratory, Republic of Korea and were maintained at 26°C ± 1°C in a climate chamber (16 h daylight: 8 h darkness) until use for toxicity tests ([Park et al., 2022]). […] At 6 days after exposure, embryonic toxicity (%) was scored as follows: [embryonic toxicity (%) = lethality (dead embryo + dead larva) + abnormality (unhatched eggs + abnormal larva)/initial embryos × 100]. Developmental abnormality of zebrafish was investigated based on apical phenotypic observation, such as coagulated embryos, lack of somite formation, non-detachment of the tail, and lack of heartbeat for 6 days after exposure ([OECD, 2013]). Embryonic toxicity (%) was used for estimating the effective concentration values (ECx) for each chemical and 95% confidence limits, by concentration-response curves (CETIS program version 1.8.7.15, Tidepool Scientific Software, United States) ([Park et al., 2022]).
To verify the developmental effects in zebrafish embryos caused by exposure to realistic mixtures, mixture toxicity tests with zebrafish embryos were performed at a range of environmentally relevant concentrations, and three exposure concentrations at a 1:1 mixing ratio (i.e., 1, 10, and 100 ng/mL of each chemical). […]

[6] = test system: zebrafish embryos; test: Single toxicity test for zebrafish embryos (ECx); assay type: in vivo; settings: for EC50: Danio rerio, 144 h, read-out: EC50 (95% CI); for EC50 / EC5 (95% CI) / EC15 (95% CI) / EC25 (95% CI): embryonic toxicity (lethality + abnormality), embryo-larva stage, 6 days exposure, probit; for toxicity to zebrafish embryos, individually: at high concentrations, 500 and 1,000 μg/mL
Method: as §4

SMILES | Relative fold change of gene expression, cyp1b1 [1] | Relative fold change of gene expression, cyp1a1 [2] | half-life in sediment ([3]; sediment) [days] | half-life in soil ([3]; soil) | 50% lethal concentration (LC50) [4] [µg/mL] | Embryonic toxicity (%) [5] [%] | EC50 [6] [µg/mL] | toxicity to zebrafish embryos, individually [6] | EC5 (95% CI) [6] | EC15 (95% CI) [6] | EC25 (95% CI) [6]
CN/C(=N\[N+](=O)[O-])NCc1cnc(Cl)s1 [CLO, Clothianidin] | 1.36±0.34^a | 0.38±0.06^a | 56 | up to 1,386 days | 161 | 12.5 ± 3.4 | 411 | toxic | 65.28 (N.C.–104.61) µg/mL | 255.72 (224.61–289.12) µg/mL | 292.89 (247.77–332.07) µg/mL
O=[N+]([O-])NC1=NCCN1Cc1ccc(Cl)nc1 [IMD, imidacloprid] |  |  |  |  | 93.6 | 12.5 ± 2.8 | 268 | toxic | 60.80 (N.C.–108.36) µg/mL | 145.69 (113.89–158.99) µg/mL | 175.04 (146.25–196.54) µg/mL
